Source: patent publication US6472157B2, “Methods for detection of promoter polymorphism in a UGT gene promoter” (Arch Development Corporation, priority 1999, dated 2002)
“Also recorded” adds a separate entry of the source. One block for each compound: values may come before it.

Columns and labels:
[1] = test system: UGT; experiment: AZT glucuronidation assay in human liver microsomes (control); format: in vitro ADME; conditions: microsomes from normal humans and CN-1 patients; AZT 5 mM, 1 hour
Method: (§1) To ensure the viability and functional enzymatic activity of the microsomal preparations, the UGT activity toward another substrate, AZT (3′-azido-3′-deoxythymidine) was investigated as a control. Liver microsomes from normal humans, CN-1 patients, normal rats, and Gunn rats were prepared as described above. Investigations were performed in pooled microsomes from normal rats, normal humans and Gunn rats, while microsomes from CN-1 patients were used individually.
(§2) Microsomes were preincubated with oleolyl lysophosphatidylcholine (OLPC) (0.8% wt/wt. OLPC/microsomal protein) at 4° C. for 20 minutes. The final reaction mixture contained 1 mg/ml preincubated microsomes, AZT (5 mM), MgCl2 (10 mM), 0.2 M Tris-HCl buffer (pH 7.3), and UDPGA (10 mM) in a final volume of 300 μl. After an incubation period of 1 hour at 37° C., the reaction was stopped with the addition of 30 μl of HCl. Proteins were removed after centrifugation at 10,500 g for 5 minutes and 30 μl aliquots of the supernatant were subjected to HPLC analysis and the metabolites were detected in an ultraviolet detector at a wavelength of 265 nm. The mobile phase consisted of a 15:85 mixture of acetonitrile/ammonium phosphate buffer (0.1% vol/vol phosphoric acid, adjusted to pH 2.7 with ammonium hydroxide) used at a flow rate of 1 ml/min. […]

[2] = test system: UGT; experiment: AZT glucuronidation assay in rat liver microsomes (control); format: in vitro ADME; conditions: microsomes from normal rats and Gunn rats; AZT 5 mM, 1 hour
Method: as §1, §2

[3] = test system: UGT enzymes; experiment: SN-38 glucuronidation assay in Gunn rat liver microsomes; format: in vitro ADME; conditions: liver microsomes from Gunn rats
Method: (§3) To investigate which UGT enzymes are responsible for SN-38 glucuronidation, the in vitro metabolism of SN-38 was measured using normal human and rat liver microsomes, as well as microsomes from Gunn rats, Gunn, C. H., J. Hered., 29:137-139 (1938), and patients with Crigler-Najjar type I (CN-1) syndrome. Liver microsomes were prepared from normal humans, CN-1 patients, normal rats, and Gunn rats and assayed for SN-38 glucuronidation. Microsomes from human liver samples medically unsuitable for liver transplantation were acquired under the auspices of the Washington Regional Transplant Consortium. In addition, microsomes were prepared by differential centrifugation methods. Purba, H. S., et al., Br. J. Clin. Pharmaocol. 23:447-453, using human liver samples obtained with the approval of the Institutional Review Boards of institutions involved through the Liver Tissue Procurement and Distribution System. Investigations were performed with pooled microsomes from normal rats, normal humans and Gunn rats, while microsomes from CN-1 patients were used individually.
Microsomes (1 mg/ml) were incubated with SN-38 (5 μM), MgCl2 (10 mM), and UDPGA (5 mM) in a 0.1 M Tris-HCl buffer medium (pH 7.4) for 30 minutes at 37° C., in a final volume of 200 μl. […] A C18μ Bondapak column (10 μm, 3.9×300 mm) was used with fluorescence detection at the following wavelengths: 355 nm and 515 nm. […]

[4] = target: T1, human UGT2B7 (Homo sapiens, UniProt P16662); experiment: SN-38 glucuronidation by cDNA-expressed UGT2B7 in HK293 cells; conditions: HK293 cells expressing UGT2B7; up to a protein concentration of 2 mg/ml
T1 sequence (P16662 24-529): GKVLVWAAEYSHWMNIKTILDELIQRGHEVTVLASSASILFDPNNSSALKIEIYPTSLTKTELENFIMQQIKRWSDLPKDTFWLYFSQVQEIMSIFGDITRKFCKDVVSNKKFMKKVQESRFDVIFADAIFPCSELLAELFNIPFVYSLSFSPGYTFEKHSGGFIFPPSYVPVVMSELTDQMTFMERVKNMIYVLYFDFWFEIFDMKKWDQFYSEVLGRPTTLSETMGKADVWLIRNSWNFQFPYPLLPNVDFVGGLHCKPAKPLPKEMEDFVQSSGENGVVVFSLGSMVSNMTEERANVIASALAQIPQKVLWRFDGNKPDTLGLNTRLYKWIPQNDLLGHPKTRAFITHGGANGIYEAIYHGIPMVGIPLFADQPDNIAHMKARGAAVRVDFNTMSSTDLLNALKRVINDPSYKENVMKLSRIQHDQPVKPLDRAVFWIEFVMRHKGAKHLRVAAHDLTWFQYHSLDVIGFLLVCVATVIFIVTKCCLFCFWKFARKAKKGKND
Text: (§4) Cell lysates from HK293 cells expressing UGT1A1 (♦), UGT1A4 (□) and UGT2B7 enzymes (Δ), and membrane preparations of HK293 cells expressing UGT1A1 enzyme (●), were screened for SN-38 glucuronidating activity. HK293 cells (⋄) were used as a control. Each data point represents the mean of three separate determinations.
(§5) To determine which particular isozyme of UGT1 glucuronidates SN-38, HK293 cells transfected with and expressing cDNA encoding selected UGT1 isozymes and a member of the UGT2 family (UGT2B7) were screened for SN-38 glucuronidating activity. Culture media and conditions for stable expression of human UGT1A1, UGT1A4, and UGT2B7 have been described previously. Coffman, et al., Mol. Pharmacol., 47:1101-1105 (1995), Green, et al., Drug Metab. Dispos., 23:299-302 (1995); Coffman, et al., Drug Metab. Dispos., 25:1-4 (1997) all are incorporated herein by reference. Briefly, the XbaI/XhoI and BamHI-XhoI fragments of human UGT1A1, UGT1A4, and UGT2B7 were subcloned into the respective corresponding sites of the mammalian expression vectors pcDNA3, pREP9, and pcDNA3.1. HK293 cells were transfected with the vector-UGT isozyme using the calcium phosphate transfection method. Chen, et al., Biotechniques, 6:632-638 (1988). The cells were then assayed for glucuronidation activity as described above.

[5] = relative to Irinotecan; cited from earlier work
[6] = test system: UGT enzymes; experiment: SN-38 glucuronidation assay in human liver microsomes; format: in vitro ADME; conditions: for mean SN-38 glucuronidation rate (peak area of SN-38 glucuronide ÷ peak area CPT) {SE}: African Americans liver microsomes
Method: as §3
Microsomes (1 mg/ml) were incubated with SN-38 (5 μM), MgCl2 (10 mM), and UDPGA (5 mM) in a 0.1 M Tris-HCl buffer medium (pH 7.4) for 30 minutes at 37° C., in a final volume of 200 μl. After stopping the reaction with 400 μl methanol, the incubation mix was centrifuged at 2,500 rpm for 30 minutes at 4° C. The supernatant was evaporated to dryness under nitrogen and in preparation of analysis by high pressure liquid chromatography (HPLC), the supernatant was reconstituted with 250 μl of a mobile phase consisting of 35% acetonitrile and 65% 0.1 M KH2PO4 containing 3 mM sodium heptane sulphonate (pH 4.0), used at a flow rate of 0.8 ml/min. A C18μ Bondapak column (10 μm, 3.9×300 mm) was used with fluorescence detection at the following wavelengths: 355 nm and 515 nm. 100 μl aliquots of the reconstituted supernatant were injected into an HPLC assay system. CPT was used as the internal standard. […] Retention times were approximately 3.5, 9, and 10 minutes, respectively. The peaks for each of these compounds were confirmed using standards of SN-38G, SN-38, and CPT.
Microsomes (1 mg/ml) were obtained from human liver tissue samples and were incubated with SN-38 (5 μM), MgCl2 (10 mM), and UDPGA (5 mM) in a 0.1 M Tris-HCl buffer medium (pH 7.4) for 30 minutes at 37° C., in a final volume of 200 μl. SN-38, SN-38G and the internal standard, CPT, were separated using high performance liquid chromatography (HPLC) coupled to fluorescence detection (ex=355 nm and em=515 nm). SN-38 reaction rates were linear for incubation times up to at least 1.5 hours and for final protein concentrations of up to 2 mg/ml. The results of this analysis, shown in Table 2 below, also include the liver samples of Caucasian origin from the first study. […]

[7] = target: T2, human UGT1A4 (Homo sapiens, UniProt P22310); experiment: SN-38 glucuronidation by cDNA-expressed UGT1A4 in HK293 cells; conditions: HK293 cells expressing UGT1A4; up to a protein concentration of 2 mg/ml
T2 sequence (P22310 29-534): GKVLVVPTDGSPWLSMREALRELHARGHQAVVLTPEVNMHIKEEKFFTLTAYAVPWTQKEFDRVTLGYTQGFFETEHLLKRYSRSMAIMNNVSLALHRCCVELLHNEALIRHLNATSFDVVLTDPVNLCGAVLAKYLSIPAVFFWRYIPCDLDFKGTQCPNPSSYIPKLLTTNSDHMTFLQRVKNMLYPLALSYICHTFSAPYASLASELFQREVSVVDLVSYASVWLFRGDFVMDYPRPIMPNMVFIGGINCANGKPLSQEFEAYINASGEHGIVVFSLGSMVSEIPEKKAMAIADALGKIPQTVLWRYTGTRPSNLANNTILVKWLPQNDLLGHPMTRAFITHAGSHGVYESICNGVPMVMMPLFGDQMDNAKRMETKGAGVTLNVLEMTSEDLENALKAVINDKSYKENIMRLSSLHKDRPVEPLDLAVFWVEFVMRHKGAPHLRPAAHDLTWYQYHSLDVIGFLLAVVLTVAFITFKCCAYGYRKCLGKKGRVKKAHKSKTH
Text: as §4, §5

[8] = target: T3, human UGT1A1 (Homo sapiens, UniProt P22309); experiment: SN-38 glucuronidation by cDNA-expressed UGT1A1 in HK293 cells; conditions: HK293 cells expressing UGT1A1; increased with increasing protein concentrations
T3 sequence (P22309 26-533): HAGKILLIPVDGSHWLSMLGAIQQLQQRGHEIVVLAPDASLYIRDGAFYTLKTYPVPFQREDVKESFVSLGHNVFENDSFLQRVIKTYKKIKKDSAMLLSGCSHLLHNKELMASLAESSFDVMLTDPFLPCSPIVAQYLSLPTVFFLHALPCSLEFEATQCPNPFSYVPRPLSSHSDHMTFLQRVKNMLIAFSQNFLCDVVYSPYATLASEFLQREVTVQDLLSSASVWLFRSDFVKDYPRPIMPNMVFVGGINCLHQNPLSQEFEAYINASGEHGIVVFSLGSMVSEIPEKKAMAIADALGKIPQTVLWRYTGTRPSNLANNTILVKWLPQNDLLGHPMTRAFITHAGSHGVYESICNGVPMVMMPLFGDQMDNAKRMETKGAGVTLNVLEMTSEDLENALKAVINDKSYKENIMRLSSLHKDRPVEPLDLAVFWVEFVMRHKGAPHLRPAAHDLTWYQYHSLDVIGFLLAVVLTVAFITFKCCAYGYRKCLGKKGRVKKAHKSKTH
Text: as §4, §5

[9] = test system: cytochrome P450 enzymes; experiment: 7-ethoxycoumarin O-deethylation in human liver samples; format: in vitro ADME; conditions: liver samples used in the genotype study
Text: To evaluate the functional viability of microsomal drug-metabolizing enzymes in the liver samples used in this study, the livers were screened for 7-ethoxycoumarin O-deethylation, as 7-ethoxycoumarin is oxidized to umbelliferone by multiple cytochrome P450 enzymes. The method used is described by Evans & Relling, J. Chromatogr., 578:141-145 (1992).

[10] = test system: UGT; experiment: PNP glucuronidation in human liver microsomes; format: in vitro ADME; conditions: PNP 360 μM, 10 minutes
Method: The formation of glucuronidated PNP was quantified by the following method. […] The reaction was stopped by the addition of 2.8 ml of 0.2 M glycine-NaOH buffer (pH 10.4). Samples were centrifuged at 2,500 rpm for 30 minutes, and UGT activity in the supernatant was analyzed colorimetrically in a spectrophotometer by measuring the disappearance of the substrate at a wavelength of 400 nm.

in vitro formation of G-AZT [1]: Intact in vitro formation of G-AZT
in vitro formation of G-AZT [2]: Intact in vitro formation of G-AZT
Compound: Cc1cn([C@H]2C[C@H](N=[N+]=[N-])[C@@H](CO)O2)c(=O)[nH]c1=O [AZT, 3′-azido-3′-deoxythymidine]

Compound: CCc1c2c(nc3ccc(O)cc13)-c1cc3c(c(=O)n1C2)COC(=O)[C@]3(O)CC [SN-38, 7-ethyl-10-hydroxycamptothecin]
in vitro SN-38 glucuronidating activity [3]: no in vitro glucuronidation; also recorded: lack SN-38 glucuronidating activity
SN-38 glucuronidating activity [4]: lack of SN-38 glucuronidating activity
higher antitumor activity than Irinotecan [5]: 100-1,000 fold
rates of SN-38G formation among individuals (range) ([6]; 25 normal human liver microsomes, SN-38 5 μM, 30 minutes, 37° C.): 0.5-26 pmol of SN-38G formed/min/mg microsomal protein
mean SN-38 glucuronidation rate (peak area of SN-38 glucuronide ÷ peak area CPT) {SE} ([6]; UGT1A1 promoter genotype 5/7): 0.39
mean SN-38 glucuronidation rate (peak area of SN-38 glucuronide ÷ peak area CPT) {SE} ([6]; UGT1A1 promoter genotype 6/8): 0.12
in vitro SN-38 glucuronidating activity ([6]; liver microsomes from CN-1 patients): no in vitro glucuronidation; also recorded: lack SN-38 glucuronidating activity
SN-38 glucuronidating activity [7]: lack of SN-38 glucuronidating activity
SN-38G formation [8]: measurable SN-38G formation

rates of umbelliferone formation (7-ethoxycoumarin O-deethylation) [9]: within the expected range
Compound: CCOc1ccc2ccc(=O)oc2c1 [7-ethoxycoumarin]

Compound: O=[N+]([O-])c1ccc(O)cc1 [PNP]
rates of PNP glucuronidation (mean±SEM) [10]: 20.39±2.4 nmol PNP glucuronidated/min/mg protein
rates of PNP glucuronidation (range) [10]: 16.48-23.82 nmol PNP glucuronidated/min/mg protein
